Test results: the NIST ThermoML archive (doi:10.1016/j.jct.2011.12.035)
Numbers after ± are expanded uncertainties.

Experiment: xn = mol fraction of the nth substance listed
Settings: Gas, Buoyancy - hydrostatic balance with magnetic suspension - one sinker

N#N [nitrogen] + O=C=O
Settings | mass density [kg/m3]
324.98 K, 10004 kPa, x2 = 0.501 | 153.908 ± 0.37
324.98 K, 11001 kPa, x2 = 0.501 | 171.162 ± 0.41
324.98 K, 12005 kPa, x2 = 0.501 | 188.662 ± 0.46
324.98 K, 13008 kPa, x2 = 0.501 | 206.25 ± 0.5
324.98 K, 14011 kPa, x2 = 0.501 | 223.826 ± 0.54
324.98 K, 14991 kPa, x2 = 0.501 | 240.922 ± 0.58
324.98 K, 16018 kPa, x2 = 0.501 | 258.66 ± 0.63
324.98 K, 17012 kPa, x2 = 0.501 | 275.602 ± 0.67
324.98 K, 18018 kPa, x2 = 0.501 | 292.404 ± 0.71
324.98 K, 19023 kPa, x2 = 0.501 | 308.813 ± 0.75
324.98 K, 19436 kPa, x2 = 0.501 | 315.426 ± 0.76
349.95 K, 1995.5 kPa, x2 = 0.2 | 21.523 ± 0.052
349.95 K, 3995.9 kPa, x2 = 0.2 | 43.283 ± 0.1
349.95 K, 5996.5 kPa, x2 = 0.2 | 65.117 ± 0.16
349.95 K, 7996.2 kPa, x2 = 0.2 | 86.91 ± 0.21
349.95 K, 9978.8 kPa, x2 = 0.2 | 108.381 ± 0.26
349.95 K, 11996 kPa, x2 = 0.2 | 129.976 ± 0.32
349.95 K, 13995 kPa, x2 = 0.2 | 151.019 ± 0.37
349.95 K, 15999 kPa, x2 = 0.2 | 171.67 ± 0.42
349.95 K, 17993 kPa, x2 = 0.2 | 191.695 ± 0.46
349.95 K, 19820 kPa, x2 = 0.2 | 209.531 ± 0.51
349.96 K, 983.48 kPa, x2 = 0.501 | 12.303 ± 0.035
349.96 K, 1988.3 kPa, x2 = 0.501 | 25.152 ± 0.061
349.96 K, 2996.4 kPa, x2 = 0.501 | 38.326 ± 0.094
349.96 K, 3997 kPa, x2 = 0.501 | 51.667 ± 0.12
349.96 K, 4995.9 kPa, x2 = 0.501 | 65.24 ± 0.16
349.96 K, 5996.2 kPa, x2 = 0.501 | 79.074 ± 0.19
349.96 K, 6995.9 kPa, x2 = 0.501 | 93.129 ± 0.23
349.96 K, 7995.5 kPa, x2 = 0.501 | 107.379 ± 0.26
349.96 K, 8996.2 kPa, x2 = 0.501 | 121.83 ± 0.29
349.96 K, 9996.3 kPa, x2 = 0.501 | 136.421 ± 0.33
349.96 K, 10998 kPa, x2 = 0.501 | 151.155 ± 0.37
349.96 K, 11997 kPa, x2 = 0.501 | 165.911 ± 0.4
349.96 K, 12998 kPa, x2 = 0.501 | 180.741 ± 0.44
349.96 K, 14000 kPa, x2 = 0.501 | 195.573 ± 0.47
349.96 K, 14998 kPa, x2 = 0.501 | 210.29 ± 0.51
349.96 K, 15995 kPa, x2 = 0.501 | 224.908 ± 0.55
349.96 K, 16996 kPa, x2 = 0.501 | 239.453 ± 0.58
349.96 K, 17996 kPa, x2 = 0.501 | 253.79 ± 0.61
349.96 K, 18997 kPa, x2 = 0.501 | 267.945 ± 0.65
349.96 K, 19977 kPa, x2 = 0.501 | 281.556 ± 0.68
374.94 K, 981.92 kPa, x2 = 0.2 | 9.845 ± 0.024
374.94 K, 1992.4 kPa, x2 = 0.2 | 19.995 ± 0.049
374.94 K, 3995.7 kPa, x2 = 0.2 | 40.155 ± 0.097
374.94 K, 5995.1 kPa, x2 = 0.2 | 60.236 ± 0.15
374.94 K, 7995.3 kPa, x2 = 0.2 | 80.217 ± 0.19
374.94 K, 9993 kPa, x2 = 0.2 | 99.987 ± 0.24
374.94 K, 11990 kPa, x2 = 0.2 | 119.489 ± 0.29
374.94 K, 13988 kPa, x2 = 0.2 | 138.676 ± 0.34
374.94 K, 16023 kPa, x2 = 0.2 | 157.817 ± 0.38
374.94 K, 17847 kPa, x2 = 0.2 | 174.574 ± 0.42
374.94 K, 19903 kPa, x2 = 0.2 | 192.989 ± 0.47
374.95 K, 987.06 kPa, x2 = 0.501 | 11.492 ± 0.028
374.95 K, 1987.8 kPa, x2 = 0.501 | 23.329 ± 0.057
374.95 K, 2995.7 kPa, x2 = 0.501 | 35.439 ± 0.088
374.95 K, 3994.8 kPa, x2 = 0.501 | 47.603 ± 0.12
374.95 K, 4993.3 kPa, x2 = 0.501 | 59.918 ± 0.15
374.95 K, 5994.6 kPa, x2 = 0.501 | 72.415 ± 0.18
374.95 K, 6995 kPa, x2 = 0.501 | 85.031 ± 0.21
374.95 K, 8053.6 kPa, x2 = 0.501 | 98.499 ± 0.24
374.95 K, 8965.3 kPa, x2 = 0.501 | 110.186 ± 0.27
374.95 K, 9995.9 kPa, x2 = 0.501 | 123.471 ± 0.3
374.95 K, 10995 kPa, x2 = 0.501 | 136.416 ± 0.33
374.95 K, 11992 kPa, x2 = 0.501 | 149.335 ± 0.36
374.95 K, 12992 kPa, x2 = 0.501 | 162.294 ± 0.39
374.95 K, 13995 kPa, x2 = 0.501 | 175.285 ± 0.42
374.95 K, 14994 kPa, x2 = 0.501 | 188.172 ± 0.46
374.95 K, 15990 kPa, x2 = 0.501 | 200.942 ± 0.49
374.95 K, 16990 kPa, x2 = 0.501 | 213.677 ± 0.52
374.95 K, 17988 kPa, x2 = 0.501 | 226.253 ± 0.55
374.95 K, 19119 kPa, x2 = 0.501 | 240.354 ± 0.58
374.95 K, 19941 kPa, x2 = 0.501 | 250.44 ± 0.61
400.01 K, 996.68 kPa, x2 = 0.2 | 9.356 ± 0.023
400.01 K, 1978.2 kPa, x2 = 0.2 | 18.57 ± 0.045
400.01 K, 3994 kPa, x2 = 0.2 | 37.452 ± 0.091
400.01 K, 5994.7 kPa, x2 = 0.2 | 56.097 ± 0.14
400.01 K, 7993.8 kPa, x2 = 0.2 | 74.576 ± 0.18
400.01 K, 9990.6 kPa, x2 = 0.2 | 92.826 ± 0.23
400.01 K, 11990 kPa, x2 = 0.2 | 110.835 ± 0.27
400.01 K, 13987 kPa, x2 = 0.2 | 128.512 ± 0.31
400.01 K, 15981 kPa, x2 = 0.2 | 145.821 ± 0.35
400.01 K, 17979 kPa, x2 = 0.2 | 162.772 ± 0.39
400.01 K, 19979 kPa, x2 = 0.2 | 179.326 ± 0.43
400.02 K, 975.89 kPa, x2 = 0.501 | 10.626 ± 0.026
400.02 K, 1987.6 kPa, x2 = 0.501 | 21.767 ± 0.053
400.02 K, 2995.6 kPa, x2 = 0.501 | 32.992 ± 0.083
400.02 K, 3980.9 kPa, x2 = 0.501 | 44.058 ± 0.11
400.02 K, 4993.2 kPa, x2 = 0.501 | 55.527 ± 0.14
400.02 K, 5994.2 kPa, x2 = 0.501 | 66.95 ± 0.16
400.02 K, 6991.4 kPa, x2 = 0.501 | 78.405 ± 0.19
400.02 K, 7992.4 kPa, x2 = 0.501 | 89.956 ± 0.22
400.02 K, 8994.6 kPa, x2 = 0.501 | 101.571 ± 0.25
400.02 K, 9979.8 kPa, x2 = 0.501 | 113.018 ± 0.27
400.02 K, 10987 kPa, x2 = 0.501 | 124.751 ± 0.3
400.02 K, 11986 kPa, x2 = 0.501 | 136.359 ± 0.33
400.02 K, 12984 kPa, x2 = 0.501 | 147.944 ± 0.36
400.02 K, 13986 kPa, x2 = 0.501 | 159.545 ± 0.39
400.02 K, 14984 kPa, x2 = 0.501 | 171.05 ± 0.41
400.02 K, 15985 kPa, x2 = 0.501 | 182.526 ± 0.44
400.02 K, 16984 kPa, x2 = 0.501 | 193.894 ± 0.47
400.02 K, 17965 kPa, x2 = 0.501 | 204.97 ± 0.5
400.02 K, 18983 kPa, x2 = 0.501 | 216.347 ± 0.52
400.02 K, 19960 kPa, x2 = 0.501 | 227.147 ± 0.55
